Results reported in patent publication US20110218515A1, “Methods for Treating Acute Myocardial Infarctions and Associated Disorders” (The Regents of the University of California, priority 2009, published 2011).

System: ischemia-reperfusion rat model
Conditions: in vivo
Description: After baseline echocardiography, thirty male Sprague-Dawley rats, ages 6-10 weeks, underwent myocardial infarction using an ischemia-reperfusion model. Briefly, rats were anesthetized using inhaled isoflurane (5% induction, 2.5% maintenance, O2 output 1 L/min) and positioned supine on an electrically warmed animal surgery platform. Rats were intubated using a 16-gauge i.v. catheter and then ventilated using a Harvard rodent respirator. After a left thoracotomy and pericardiotomy were performed, a 7-0 Ticron suture was introduced into the myocardium, using the left atrial appendage and right outflow tract as landmarks. The depth of entry was 2 mm, which was slightly greater than the level of the left coronary artery. Both suture ends were then threaded through a PE-90 polyethylene tube 6 in. in length to form a “snare loop” around the artery, closed by pulling on the free ends of the suture. […] The suture was then tightened to occlude the artery for 20 minutes and then removed to allow for reperfusion. The chest was then closed with 5-0 prolene suture, and the animal was allowed to recover. After one week and repeat echocardiography, rats were randomized to placebo rodent feed (control group, n=15) or rodent feed mixed with 1.2% pirfenidone (PFD) (treatment group, n=15) for four weeks. All experiments and data analyses were performed with the operator blinded to treatment group. […]

## Cc1ccc(=O)n(-c2ccccc2)c1 [pirfenidone]
  mortality, CHF, or arrhythmias in treated animals: No increased mortality, CHF, or arrhythmias
